Measurements as given in patent publication US5455274A, “Hydroxyamidine derivatives” (Ciba-Geigy Corporation, priority 1992, dated 1995).

Experiments:
[1] = system: LTB4 -induced neutropenia; experiment: LTB4-induced neutropenia in the rat; format: in vivo; details: dose of about 0.5 mg./Kg p.o., determined at four hours after administration
Protocol: LTB4 -Induced Neutropenia in the Rat
Male Sprague Dawley rats (crl: CDBR; Charles River, Wilmington, Mass.) (250-300 grams) are fasted overnight prior to the experiment. At least six animals are used per treatment group. Rats are given vehicle or compound either intravenously or orally and at intervals after dosing, neutrophil counts are determined from blood samples obtained just prior to and 20 seconds after intravenous infusion of 200 ng LTB4. In studies where compound is administered orally, drug is given by gavage. When drug is administered intravenously, rats are first anesthetized with 50 mg/kg i.p. of Sodium Pentabarbital. The jugular vein is exposed and cleaned of the surrounding tissue. At 3, 4 or 18 hours following administration of compound or vehicle by either route, blood samples are taken (0.3 ml of blood in 1.5 ml polypropylene microcentrifuge tube containing 0.01 mi 7.5% EDTA). Blood neutrophil counts are determined using a Technicon H-1 hematology instrument. Antagonism of the LTB4 -induced neutropenia response for the compounds tested is calculated.

Human PMNs = experiment: LTB4-induced PMN aggregation; format: cell-based; details: in vitro, 20 nM LTB4, read-out: inhibits LTB4 -induced PMN aggregation, IC50
Protocol: Neutrophils (PMN's) are prepared from uncoagulated human venous blood. Blood is dispersed into 50 ml polypropylene tubes containing 15 ml of HESPAN (Dupont, Wilmington, Del.), and mixed. Tubes are allowed to stand at room temperature for 40 minutes until most of the red blood cells sediment. The supernatants are removed and centrifuged for 5-10 min at 400×g. The remaining pellets are diluted in 70 ml of Phosphate Buffered Saline without calcium and magnesium (PBS without metals; GIBCO, Grand Island, N.Y.) and 35 ml of this suspension are placed in each of two polypropylene tubes containing 15 ml of Ficoll-Paque (Sigma, St. Louis, Mo.). Gradients are then centrifuged for 15 minutes at 420×g. […]
Human PMNs are prepared as previously described. Neutrophil aggregation is assessed by monitoring the intensity of light passing through a suspension of cells (Craddock et al., J. Clin. Invest. 60: 260-264, 1977) using a Payton dual channel aggregometer (model 300BD). […] 5 μl of 2 μM LTB4 in PBS (20 nM final concentration) are added and the aggregation response monitored for 3-5 min, the time required for optimal response, Compounds are solubilized in 0.01M DMSO and then diluted in PBS to 0.001 M. 5 μl of compound solution is added along with cytochalasin B and cells as described above. Following the preincubation period 5 μl of 2 μM LTB4 are added and aggregation is measured. […]

IC50 (Human PMNs): ~10 nM
SMILES: CC(C)N(C(=O)c1ccc(OCCCCCOc2ccc(C(N)=NO)cc2)cc1O)C(C)C [Example 1, 4-[5-[4-[amino(hydroxyimino)methyl]phenoxy]pentyloxy]-2-hydroxy-N,N-bis(1-methylethyl)benzamide]
inhibition of LTB4 -induced neutropenia in the rat [1]: causes inhibition
